Our source for the viability and concentration values is patent US11498920B2, “4-(1H-imidazol-5-yl)-1H-pyrrolo[2, 3-b] pyridines for use in the treatment of leukaemias, lymphomas and solid tumors” (MASARYKOVA UNIVERZITA, priority 2018, dated 2022).

The test system of one data set is primary CLL cells. The experiment in a line: Cytotoxicity, TMRE flow cytometry viability, primary CLL cells (Example II.1). The class given is cell-based. Particulars: Homo sapiens, CLL cell, 6 hours, TMRE positive cells normalized to control, ratio to PF670462, <1 = higher cytotoxicity than PF670462, read-out: Viability of cells, Compound of formula I (100 μM), relative to PF670462 (100 μM), CLL primary cells. On the technique in general: Flow cytometry measures light scatter and fluorescence of single cells or particles in a stream.

Data set [1] in a line: Pharmacokinetic study, oral dosing, plasma concentration by LC-MS/MS (Example II.5). It is filed as in vivo. The conditions noted are these: mouse, male Balb/c mice, oral 20 mg/kg as dihydrochloride in saline, free base quantified, below LLOQ designated zero; for concentration at 15 min: read-out: conc. at 15 min; for concentration at 30 min: read-out: conc. at 30 min; for concentration at 60 min: read-out: conc. at 60 min; for concentration at 120 min: read-out: conc. at 120 min; for concentration at 240 min: read-out: conc. at 240 min; for concentration at 600 min: read-out: conc. at 600 min. On the procedure: Male Balb/c mice (10-12 weeks old, body weight 24.1 to 30.8 g and average body weight across all groups 26.8 g, SD=1.7 g) were used in this study. The animals were randomly assigned to the treatment groups before the pharmacokinetic study; all animals were fasted for 4 h before dosing. The time points indicated in Table 4 were set for this pharmacokinetic study. Each of the time point treatment group included 4 animals. There was also control group of 2 animals. The compounds were dosed orally as the corresponding dihydrochlorides dissolved in physiological saline (c=3-4 mg/mL) at the dose of 20 mg/kg.
Mice were injected IP with 2,2,2-tribromoethanol at the dose of 150 mg/kg prior to drawing the blood. Blood collection was performed from the orbital sinus in microtainers containing K2EDTA. Animals were sacrificed by cervical dislocation after the blood samples collection. All samples were immediately processed, flash-frozen and stored at −70° C. until subsequent analysis.
Plasma samples (50 μL) were mixed with 200 μL of internal standard solution. After mixing by pipetting and centrifuging for 4 min at 6,000 rpm, 0.5 μL of each supernatant was injected into LC-MS/MS system.
The analyzed compound (as a dihydrochloride salt) was dissolved in DMSO, and the resulting solution with concentration of 2 mg/mL was used for calibration standards preparation (stock solution). A series of calibration standards was prepared by consecutively dilution of stock compound solution with blank mouse plasma to a final concentration of 40 000, 20 000, 10 000, 5 000, 2 500, 1000, 500, 250, 100, 50, and 20 ng/mL. Standard plasma samples (50 μL) were mixed with 200 μL of internal standard. After mixing by pipetting and centrifuging for 4 min at 6,000 rpm, 0.5 μL of each supernatant was injected into LC-MS/MS system. Signal corresponding to the free base was analyzed and quantified (Table 4).
The regression analysis of the analyzed compound was performed by plotting the peak area ratio (y-axis) against the compound concentration in calibration standards (x-axis, ng/mL).
The concentrations of the analyzed compound in plasma samples below the lower limit of quantitation (LLOQ—5 ng/mL to 20 ng/mL) were designated as zero.

For data set [2], the system named is Maver-1 cells (mantle cell lymphoma). The experiment in a line: Cytotoxicity, TMRE flow cytometry viability, Maver-1 cells (Example II.1). The class given is cell-based. The conditions noted are these: Homo sapiens, Maver1, 24 hours, TMRE positive cells normalized to control, ratio to PF670462, <1 = higher cytotoxicity than PF670462, read-out: Viability of cells, Compound of formula I (100 μM), relative to PF670462 (100 μM), Maver-1 cells (mantle cell lymphoma).

The viability is a per cent measure of how many cells are alive, often set against a control. Consider `Fc1ccc(-c2ncn(Cc3cccnc3)c2-c2ccnc3[nH]ccc23)cc1` [Preparative Example 82, 4-(4-(4-fluorophenyl)-1-(pyridin-3-ylmethyl)-1H-imidazol-5-yl)-1H-pyrrolo[2,3-b]pyridine], for which, in the data set on primary CLL cells, the viability at 100 µM was 80%. In data set [1], the concentration at 15 min turned out to be 1370 nM, the concentration at 30 min was 260 nM, the concentration at 60 min was 90 nM and the concentration at 120 min is 40 nM. Also, in data set [1], the concentration at 240 min was 20 nM and the concentration at 600 min was 0 nM.
Consider `Cn1cnc(Cn2cnc(-c3ccc(F)cc3)c2-c2ccnc3[nH]ccc23)c1` [Preparative Example 92, 4-(4-(4-fluorophenyl)-1-((1-methyl-1H-imidazol-4-yl)methyl)-1H-imidazol-5-yl)-1H-pyrrolo[2,3-b]pyridine], for which, in data set [1], the concentration at 15 min worked out at 9520 nM, the concentration at 30 min amounted to 6630 nM, the concentration at 60 min was 4520 nM and the concentration at 120 min was found to be 790 nM. Besides, in data set [1], the concentration at 240 min came to 50 nM and the concentration at 600 min was 0 nM. In addition, the viability at 100 µM in data set [2] came out at 81%.
As for `Cn1ccc(Cn2cnc(-c3ccc(F)cc3)c2-c2ccnc3[nH]ccc23)n1` [Preparative Example 94], in data set [1], the concentration at 15 min came out at 440 nM, the concentration at 30 min amounted to 210 nM, the concentration at 60 min worked out at 180 nM and the concentration at 120 min was 70 nM. In data set [1], the concentration at 240 min is 0 nM and the concentration at 600 min came to 0 nM. In addition, the viability at 100 µM in data set [2] was found to be 81%.
For `Fc1ccc(-c2ncn(Cc3cocn3)c2-c2ccnc3[nH]ccc23)cc1` [Preparative Example 103, 4-((4-(4-fluorophenyl)-5-(1H-pyrrolo[2,3-b]pyridin-4-yl)-1H-imidazol-1-yl)methyl)oxazole], in data set [1], the concentration at 15 min was found to be 2170 nM, the concentration at 30 min was found to be 580 nM, the concentration at 60 min was determined as 130 nM and the concentration at 120 min came out at 80 nM. In data set [1], the concentration at 240 min stood at 40 nM and the concentration at 600 min is 0 nM.
For the molecule `Cc1nnc(Cn2cnc(-c3ccc(F)cc3)c2-c2ccnc3[nH]ccc23)[nH]1` [Preparative Example 107, 4-(4-(4-fluorophenyl)-1-((5-methyl-4H-1,2,4-triazol-3-yl)methyl)-1H-imidazol-5-yl)-1H-pyrrolo[2,3-b]pyridine], in data set [1], the concentration at 15 min is 4780 nM, the concentration at 30 min came to 2420 nM, the concentration at 60 min amounted to 2300 nM and the concentration at 120 min is 430 nM. Also, in data set [1], the concentration at 240 min came to 240 nM and the concentration at 600 min worked out at 0 nM.
Regarding `Cn1cc(Cn2cnc(-c3ccc(F)cc3)c2-c2ccnc3[nH]ccc23)nn1` [Preparative Example 113, 4-(4-(4-fluorophenyl)-1-((1-methyl-1H-1,2,3-triazol-4-yl)methyl)-1H-imidazol-5-yl)-1H-pyrrolo[2,3-b]pyridine], in data set [1], the concentration at 15 min is 8010 nM, the concentration at 30 min is 3530 nM, the concentration at 60 min is 1030 nM and the concentration at 120 min amounted to 1120 nM. Further, in data set [1], the concentration at 240 min stood at 250 nM and the concentration at 600 min was 0 nM.
Regarding `Cn1ccnc1Cn1cnc(-c2ccc(F)cc2)c1-c1ccnc2[nH]ccc12` [Preparative Example 122, 4-(4-(4-fluorophenyl)-1-((1-methyl-1H-imidazol-2-yl)methyl)-1H-imidazol-5-yl)-1H-pyrrolo[2,3-b]pyridine], in data set [1], the concentration at 15 min is 2730 nM, the concentration at 30 min amounted to 730 nM, the concentration at 60 min was found to be 300 nM and the concentration at 120 min was found to be 160 nM. In addition, in data set [1], the concentration at 240 min amounted to 40 nM and the concentration at 600 min is 0 nM.
`Cn1nnc(Cn2cnc(-c3ccc(F)cc3)c2-c2ccnc3[nH]ccc23)n1` [Preparative Example 151]: in data set [1], the concentration at 15 min came to 18900 nM, the concentration at 30 min amounted to 7240 nM, the concentration at 60 min is 3980 nM and the concentration at 120 min came to 770 nM. Moreover, in data set [1], the concentration at 240 min turned out to be 410 nM and the concentration at 600 min stood at 0 nM.
Turning to `Fc1ccc(-c2ncn(Cc3nc[nH]n3)c2-c2ccnc3[nH]ccc23)cc1` [Preparative Example 154, 4-(1-((1H-1,2,4-triazol-3-yl)methyl)-4-(4-fluorophenyl)-1H-imidazol-5-yl)-1H-pyrrolo[2,3-b]pyridine], in data set [1], the concentration at 15 min was found to be 13900 nM, the concentration at 30 min worked out at 8760 nM, the concentration at 60 min was determined as 7860 nM and the concentration at 120 min was 2450 nM. In data set [1], the concentration at 240 min was found to be 520 nM and the concentration at 600 min is 0 nM.
In the case of `Fc1ccc(-c2nc(Cl)n(C3CCCCC3)c2-c2ccnc3[nH]ccc23)cc1` [Preparative Example 155, 4-(2-chloro-1-cyclohexyl-4-(4-fluorophenyl)-1H-imidazol-5-yl)-1H-pyrrolo[2,3-b]pyridine], the figures for the viability at 100 µM (in the data set on primary CLL cells; in data set [2]) were 1% and 0%, respectively.
The corresponding values for `CCOC(=O)c1nc(-c2ccc(F)cc2)c(-c2ccnc3[nH]ccc23)n1C1CCCCC1` [Preparative Example 163, ethyl 1-cyclohexyl-4-(4-fluorophenyl)-5-(1H-pyrrolo[2,3-b]pyridin-4-yl)-1H-imidazole-2-carboxylate] are 57% and 10%.
As to `NC(=O)c1nc(-c2ccc(F)cc2)c(-c2ccnc3[nH]ccc23)n1C1CCCCC1` [Preparative Example 165, 1-cyclohexyl-4-(4-fluorophenyl)-5-(1H-pyrrolo[2,3-b]pyridin-4-yl)-1H-imidazole-2-carboxamide], the viability at 100 µM (in the data set with primary CLL cells; in data set [2]) was 0% in each case.
Turning to `OCc1nc(-c2ccc(F)cc2)c(-c2ccnc3[nH]ccc23)n1C1CCCCC1` [Preparative Example 166, (1-cyclohexyl-4-(4-fluorophenyl)-5-(1H-pyrrolo[2,3-b]pyridin-4-yl)-1H-imidazol-2-yl)methanol], the viability at 100 µM in the data set with primary CLL cells was determined as 7%; in data set [2] it was 4%.
The corresponding values for `CN(C)Cc1nc(-c2ccc(F)cc2)c(-c2ccnc3[nH]ccc23)n1C1CCCCC1` [Preparative Example 169, 1-(1-cyclohexyl-4-(4-fluorophenyl)-5-(1H-pyrrolo[2,3-b]pyridin-4-yl)-1H-imidazol-2-yl)-N,N-dimethylmethanamine] are 12% and 0%.
In the case of `Nc1cc(-c2c(-c3ccc(F)cc3)ncn2C2CCCCC2)c2cc[nH]c2n1` [Preparative Example 170, 4-(1-cyclohexyl-4-(4-fluorophenyl)-1H-imidazol-5-yl)-1H-pyrrolo[2,3-b]pyridin-6-amine], the viability at 100 µM in the data set with primary CLL cells was 56%; in data set [2], 6%.
The like results for `Fc1ccc(-c2ncn(Cc3ccccc3)c2-c2ccnc3[nH]ccc23)cc1F` [Preparative Example 179, 4-(1-benzyl-4-(3,4-difluorophenyl)-1H-imidazol-5-yl)-1H-pyrrolo[2,3-b]pyridine] were, in that order, 1% and 0%.
